Results taken from ChEMBL document CHEMBL1201862, “PubChem BioAssay data set” (2004).
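Briefly, cells in 96-well plates were exposed to five compound concentrations for 48 h, and endpoints were estimated by linear interpolation. Here, GI50 denotes the concentration required for 50% inhibition of growth.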 Active and inactive are the calls of the source. Rule as the data show it: active = GI50 up to about 1.1 µM and inactive = higher.

Key:
Test in all cases: growth of human tumour cells (NCI), 48 h
A549 = system: A549
HCC 2998 = system: HCC 2998
HCT-116 = system: HCT-116
HL-60 = system: HL-60
IGROV-1 = system: IGROV-1
KM12 = system: KM12
LOX IMVI = system: LOX IMVI
Malme-3M = system: Malme-3M
NCI/ADR-RES = system: NCI/ADR-RES
OVCAR-5 = system: OVCAR-5
OVCAR-8 = system: OVCAR-8
RPMI-8226 = system: RPMI-8226
SF-295 = system: SF-295
SK-MEL-2 = system: SK-MEL-2
SNB-78 = system: SNB-78
SW-620 = system: SW-620
U-251 = system: U-251
UACC-257 = system: UACC-257
M14 = system: M14
TK-10 = system: TK-10

Measured: GI50

Cc1[nH]c(=O)[nH]c(=O)c1/C=C/C(=O)NC(CO)C[S+]([O-])Cc1ccccc1 (configuration not stated)
inactive: A549 > 300 µM | HCC 2998 > 300 µM | HCT-116 > 300 µM | HL-60 > 300 µM | IGROV-1 > 300 µM | KM12 299 µM | LOX IMVI > 300 µM | Malme-3M > 300 µM | NCI/ADR-RES > 300 µM | OVCAR-5 > 300 µM | OVCAR-8 > 300 µM | RPMI-8226 > 300 µM | SF-295 > 300 µM | SK-MEL-2 > 277 µM | SNB-78 > 300 µM | SW-620 > 300 µM | U-251 > 300 µM | UACC-257 > 300 µM

C=CC12CN(C)C3C4COC(CC41)C1(C(=O)Nc4ccccc41)C32 (configuration not stated)
inactive: A549 166 µM | HCC 2998 > 151 µM | HCT-116 158 µM | HL-60 152 µM | IGROV-1 > 200 µM | KM12 168 µM | LOX IMVI > 150 µM | Malme-3M 174 µM | NCI/ADR-RES > 165 µM | OVCAR-5 > 200 µM | OVCAR-8 > 200 µM | RPMI-8226 > 195 µM | SF-295 > 200 µM | SK-MEL-2 > 148 µM | SNB-78 176 µM | SW-620 174 µM | U-251 > 156 µM | UACC-257 > 200 µM

CCOC(=O)C(NC(C)=O)(Nc1ccc(F)cc1)C(F)(F)F (configuration not stated)
inactive: A549 39.3 µM | HCC 2998 5.18 µM | HCT-116 13.4 µM | HL-60 4.79 µM | IGROV-1 90.8 µM | KM12 83.2 µM | LOX IMVI > 100 µM | M14 20.2 µM | NCI/ADR-RES 8.13 µM | OVCAR-5 47 µM | OVCAR-8 > 100 µM | RPMI-8226 72.1 µM | SF-295 16.6 µM | SK-MEL-2 > 100 µM | SW-620 28.8 µM | TK-10 > 100 µM | U-251 16.5 µM | UACC-257 > 100 µM

COc1cc2c(cc1OC)C1Cc3sccc3CN1CC2 (configuration not stated)
inactive: A549 > 100 µM | HCC 2998 > 100 µM | HCT-116 > 100 µM | HL-60 > 100 µM | IGROV-1 > 100 µM | LOX IMVI > 100 µM | M14 72.4 µM | Malme-3M > 100 µM | OVCAR-5 > 100 µM | OVCAR-8 > 100 µM | RPMI-8226 > 100 µM | SF-295 > 100 µM | SK-MEL-2 > 100 µM | SNB-78 > 100 µM | SW-620 > 100 µM | TK-10 > 100 µM | U-251 > 100 µM | UACC-257 > 100 µM

O=C1C(Cl)N(c2ccc(Cl)cc2Cl)C1c1c[nH]c2ccccc12 (configuration not stated)
inactive: A549 > 100 µM | HCT-116 91.2 µM | HL-60 > 100 µM | IGROV-1 > 100 µM | KM12 > 100 µM | M14 > 100 µM | Malme-3M > 100 µM | OVCAR-8 > 100 µM | RPMI-8226 > 100 µM | SF-295 > 100 µM | SK-MEL-2 > 100 µM | SW-620 > 100 µM | TK-10 > 100 µM | U-251 > 100 µM | UACC-257 > 100 µM

CC1(C23CC4CC(CC(C4)C2)C3)n2c(=O)n(-c3ccccc3)c(=O)n2C1(C)C12CC3CC(CC(C3)C1)C2 (configuration not stated)
inactive: A549 > 100 µM | HL-60 > 100 µM | IGROV-1 > 100 µM | KM12 > 100 µM | M14 > 100 µM | NCI/ADR-RES > 100 µM | OVCAR-5 > 100 µM | OVCAR-8 > 100 µM | RPMI-8226 89.7 µM | SF-295 > 100 µM | SK-MEL-2 > 100 µM | SW-620 > 100 µM | TK-10 > 100 µM | U-251 > 100 µM | UACC-257 > 100 µM

O=C(O)CN(CC(=O)O)C1CCCCC1N(CC(=O)O)CC(=O)NCCN=C=S (configuration not stated)
inactive: A549 > 100 µM | HCC 2998 > 100 µM | HCT-116 > 100 µM | HL-60 > 100 µM | IGROV-1 > 100 µM | KM12 > 100 µM | LOX IMVI > 100 µM | M14 > 100 µM | Malme-3M > 100 µM | NCI/ADR-RES > 100 µM | OVCAR-5 > 100 µM | OVCAR-8 > 100 µM | RPMI-8226 > 100 µM | SF-295 > 100 µM | SK-MEL-2 > 100 µM | SW-620 > 100 µM | TK-10 > 100 µM | U-251 > 100 µM | UACC-257 > 100 µM

O=c1c(Cc2ccc(Cc3c(O)oc4ccccc4c3=O)cc2)c(O)oc2ccccc12
inactive: A549 > 100 µM | HCC 2998 > 100 µM | HCT-116 > 100 µM | HL-60 > 100 µM | IGROV-1 > 100 µM | LOX IMVI > 100 µM | M14 > 100 µM | Malme-3M > 100 µM | NCI/ADR-RES > 100 µM | OVCAR-5 > 100 µM | OVCAR-8 > 100 µM | SF-295 > 100 µM | SK-MEL-2 > 100 µM | SW-620 > 100 µM | TK-10 > 100 µM | U-251 > 100 µM | UACC-257 > 100 µM

CC(C)(C)C1(c2ccc(C3(c4ccccc4)Oc4ccccc4S3)[nH]2)Oc2ccccc2S1 (configuration not stated)
inactive: A549 > 100 µM | HCC 2998 > 100 µM | HCT-116 > 100 µM | HL-60 > 100 µM | IGROV-1 > 100 µM | LOX IMVI > 100 µM | M14 > 100 µM | Malme-3M > 100 µM | OVCAR-5 > 100 µM | OVCAR-8 > 100 µM | RPMI-8226 96.2 µM | SF-295 > 100 µM | SK-MEL-2 > 100 µM | SNB-78 > 100 µM | SW-620 > 100 µM | TK-10 > 100 µM | U-251 > 100 µM | UACC-257 92.9 µM

NC(=O)CCC(N=C(N)c1csc(C2OC(CO)C(O)C2O)n1)C(=O)O (configuration not stated)
inactive: A549 > 100 µM | HCC 2998 > 100 µM | HL-60 > 100 µM | IGROV-1 > 100 µM | KM12 > 100 µM | LOX IMVI > 100 µM | M14 > 100 µM | Malme-3M > 100 µM | OVCAR-5 > 100 µM | OVCAR-8 > 100 µM | RPMI-8226 > 100 µM | SF-295 > 100 µM | SK-MEL-2 > 100 µM | SNB-78 > 100 µM | SW-620 > 100 µM | TK-10 > 100 µM | U-251 > 100 µM | UACC-257 > 100 µM

COc1cc(-c2ccc(/N=N/c3ccc4c(S(=O)(=O)O)cc(S(=O)(=O)O)c(N)c4c3O)c(OC)c2)ccc1/N=N/c1ccc2c(S(=O)(=O)O)cc(S(=O)(=O)O)c(N)c2c1O
inactive: A549 > 100 µM | HCC 2998 > 100 µM | HCT-116 > 100 µM | HL-60 > 41.6 µM | IGROV-1 > 100 µM | KM12 > 100 µM | LOX IMVI > 100 µM | Malme-3M > 100 µM | NCI/ADR-RES > 100 µM | OVCAR-5 > 91.2 µM | OVCAR-8 > 100 µM | RPMI-8226 > 100 µM | SF-295 > 100 µM | SK-MEL-2 > 100 µM | SNB-78 > 100 µM | SW-620 > 100 µM | U-251 > 100 µM | UACC-257 > 100 µM
